Source: PubChem BioAssay AID1891 (Broad Institute, 2009)
Calls of active or inactive are those of the source. How the calls were made is not given here.

Molecular target: Luciferin 4-monooxygenase (Photinus pyralis) (UniProt P08659)
Test: inhibition of purified Photinus pyralis luciferase – biochemical, luminescence, dose response (AID 1891)
Conditions: purified firefly luciferase

Row | SMILES | IC50
1 | CCNC(=O)[C@H]1O[C@@H](n2cnc3c(N)ncnc32)[C@H](O)[C@@H]1O | > 11.2 µM (inactive)
2 | Nc1ncnc2c1ncn2[C@@H]1O[C@H](CO)[C@@H](O)[C@H]1O | > 11.2 µM (inactive)
3 | Nc1ncnc2c1ncn2C1OC(CO)C(O)C1O (centres undefined) | > 11.2 µM (inactive)
4 | CCNC(=O)C1OC(n2cnc3c(N)ncnc32)C(O)C1O (centres undefined) | > 11.2 µM (inactive)
